From patent publication US20140356468A1, “COMPOSITION CONTAINING PAPER MULBERRY EXTRACTS” (AMOREPACIFIC CORPORATION, priority 2010, published 2014) come the findings set out here.

Assay [1] deals with differentiated 3T3-L1 adipocytes. The assay is described as follows: Stimulation of decomposition of triglyceride in adipocytes (GPO-trinder kit). The assay is classed as cell-based, mouse. The note with it: control = 100%; caffeine 50 μM. As to the method:
Mouse fibroblast 3T3-L1 cells were seeded into a 6-well culture plate containing 10% fetal bovine serum (FBS)-containing DMEM (Dulbeco's modified eagle's medium, GIBCO BRL, Life Technologes) at a density of 1×10^5 cells/well. After 2 days, the medium was replaced with fresh DMEM (containing 10% FBS), followed by culture for 2 days. Then, the cultured cells were treated with DMEM (containing 10% FBS) containing 1 μg/ml insulin, 0.5 mM IBMX and 0.25 μM dexamethasone to induce differentiation, and after 2 days, the medium was replaced with insulin-containing DMEM, followed by incubation for 5 days. After 5 days, the medium was replaced with normal medium (DMEM containing 10% FBS), and the cells were incubated until the cells morphologically differentiated into adipocytes. In order to evaluate the effect of the paper mulberry extract on the stimulation of decomposition of triglyceride in adipocytes, a test was carried out using the differentiated […] adipocytes. The 3T3-L1 adipocytes were washed twice with PBS (phosphate buffered saline), and colorless DMEM containing 0.5% fatty acid-free bovine serum albumin (BSA) was added to the cells, and a fraction of the cells was taken and used in the test. As a control, a medium not treated with the test material or the positive control was used. […] (Sigma, St. Louis, Mo., U.S.A.), and the absorbance at 540 nm was measured using an ELISA reader.

Assay [2] has the same test system. Put plainly: Inhibition of lipogenesis (Sudan III staining of adipocytes). The arrangement: key: expressed as +++, ++ and + depending on the degree of staining; expressed as +++, ++ and + depending on the degree of staining; expressed as +++, ++ and + depending on the degree of staining. The assay is classed as cell-based, mouse. Particulars: Sudan III staining grade; positive control 50 μM caffeine. As to the method: Mouse fibroblast 3T3-L1 cells were seeded into a 6-well culture plate containing 10% fetal bovine serum (FBS)-containing DMEM (Dulbeco's modified eagle's medium (GIBCO BRL, Life Technologes) at a density of 1×10^5 cells/well. After 2 days, the medium was replaced with fresh DMEM (containing 10% FBS), followed by culture for 2 days. Then, the cultured cells were treated with DMEM (containing 10% FBS) containing 1 μg/ml insulin, 0.5 mM IBMX and 0.25 μM dexamethasone to induce differentiation, and after 2 days, the medium was replaced with insulin-containing DMEM, followed by incubation for 5 days. After 5 days, the medium was replaced with normal medium (DMEM containing 10% FBS), and the cells were incubated until the cells morphologically differentiated into adipocytes. In order to measure the effect of the paper mulberry extract on the inhibition of the accumulation of fat in adipocytes, the differentiated 3T3-L1 adipocytes were subjected to Sudan III staining ([…], Sigma-Aldrich). The adipocytes were fixed with 4% paraformaldehyde (pH 7.2) in phosphate buffer at room temperature, and then washed with PBS (phosphate buffered saline), after which the cells were stained with Sudan III and photographed for visual comparison. […] The degree of inhibition of fat accumulation was expressed as +++, ++ and + depending on the degree of staining.

Assay [3] deals with T1, elastase type III (Sus scrofa, UniProt P00772).
T1 construct: purchased Sigma Aldrich E0127
The assay is described as follows: Inhibition of elastase activity. The assay is classed as biochemical. The note with it: elastase test; extract 10 mg/L, EGCG 250 μM; untreated negative control = 100. As to the method: The elastase inhibitory activity of the paper mulberry extract prepared in Preparation Example 1 was measured in comparison with that of EGCG. The elastase and substrate used were commercially purchased from Sigma Aldrich (Cat. No. E0127, USA). The elastase inhibitory activity was measured in the following manner. […] Then, 100 μL of 0.4514 mg/mL N-SUCCINYL-[…]-NITROANILIDE in the same buffer used above was added to the plate and allowed to react at 25° C. for 15 minutes. After completion of the reaction, the absorbance at 415 nm was measured. For correction, a blank test was carried out in the same manner. The elastase inhibitory activity was calculated using the following equation. Elastase activity inhibition(%)={1-(C-D)/(A-B)}×100 wherein A: absorbance at 415 nm in the case in which the test sample was not added and the enzyme was added; B: absorbance at 415 nm in the case in which the test sample was not added and the enzyme was not added; C: absorbance at 415 nm in the case in which the test sample was added and the enzyme was added; and D: absorbance at 415 nm in the case in which the test sample was added and the enzyme was not added.

Assay [4] relates to MITF expression in Melan-a melanocyte cell line MITF-GLuc. The assay is described as follows: Stimulation of MITF expression in transformed melanocytes (GLuc reporter). The assay is classed as cell-based. Particulars: 100 μM, 3 days. From the text:
To examine the gray preventing effect of the paper mulberry extract, the effect of the paper mulberry extract on the stimulation of MITF expression was examined as disclosed in Korean Patent Application No. 10-2007-0072182 (entitled “A method for screening a gray hair-preventing substance using a transformed cell line and leukoplakia mice and a composition for preventing gray hair containing the gray hair-preventing substance”). The Melan-a melanocyte cell line MITF-GLuc (accession number: KCLRF-BP-00162) transformed with the expression vector pMITF-GLuc was cultured in RPMI 1640 medium containing 10% fetal bovine serum (FBS), 100 unit/ml penicillin-streptomycin (Gibco), 0.1 μM TPA (Sigma) and 400 μg/ml G418 under the conditions of 37° C. and 10% CO2. The positive control IBMX was purchased from Sigma and used at a concentration of 100 μM. […] After the incubation, to quantify the amount of GLuc, a small amount of the medium was taken, transferred to a measurement plate and allowed to react with a substrate. Specifically, a small amount of the medium was taken from the cell culture dish and transferred to a measurement plate, after which 1× GLuc assay working solution (NEB) was added to the medium at a ratio of 4:1, and the amount of light emitted at […] was measured using a luminometer.

The subject of assay [5] is Leukoplakia mice (C57bl/6-Mitf^mi-vit). The assay is described as follows: Gray hair prevention and black hair induction in leukoplakia mice (melanin in hair). The assay is classed as in vivo. Particulars: topical twice a day, about 3 weeks; extract 2.5%, IBMX 50 mM in vehicle. On the procedure:
Leukoplakia mice (C57bl/6-Mitf^mi-vit) were purchased from The Jackson Lab (USA) and used. The effect of the paper mulberry extract on gray hair prevention in the mice was tested in the following manner. The back of 12-week-old mice was depilated such that the depilated area was the same between the mice. From the day following the depilation day, gray hair-preventing substances were applied to the depilated area twice a day. As a vehicle for the gray hair-preventing substance, a mixture of EtOH:1,3-BG:DW=3:2:5 (volume ratio) was used. […] After about 3 weeks, the difference in gray hair prevention effect between the materials has been distinguished, newly grown hairs were collected and the amount of melanin in the hairs was measured using esperase (Novozyme). […] The reaction solution thus obtained was added to a 96-well plate, and the absorbance at 405 nm was measured, thereby measuring the amount of melanin in the reaction solution. As described above, the leukoplakia mouse model in which the occurrence of gray hair was stimulated was treated with each of the negative control, the positive control and the test sample, and the effects of the negative control, the positive control and the test sample were measured visually and by measuring the amount of melanin in the hair.

Assay [6] has as its system Collagenase (MMP-1). Put plainly: Collagenase (MMP-1) production in human fibroblasts (ELISA). It is filed as cell-based. The note with it: extract 10 μg/ml, 24 hours; control = 100. As to the method: The collagenase production inhibitory ability of the paper mulberry extract prepared in Preparation Example 1 was measured in comparison with that of retinoic acid.
Human fibroblasts were added to a 96-well microtiter plate containing 2.5% fetal bovine serum-containing DMEM (Dulbecco's Modified Eagle's Media) at a density of 5,000 cells/well and were cultured in a 5% CO2 incubate at 37° C. to a confluence of about 70-80%. Then, the cell culture was treated with 10 μg/ml of the paper mulberry extract of Preparation Example 1 for 24 hours and collected.
The production of collagenase in the collected cell culture was measured using a commercially available collagenase measurement instrument (Catalog #: RPN 2610, Amersham Pharmacia, USA). […]
The absorbance of the yellowish 96-well plate at 405 nm was measured using a spectrophotometer, and based on the measurements, the degree of synthesis of collagenase was calculated using the following equation 1. Herein, the absorbance of a cell culture collected from a group not treated with the test sample was used as a control.
Collagenase expression(%)=(absorbance of cell group treated with material/absorbance of control)×100 Equation 1
In general terms: In an ELISA, binding on a coated surface is turned into a signal by an enzyme label.

Assay [7] relates to prostaglandin production in macrophages. Put plainly: Inhibition of prostaglandin production in LPS-treated macrophages (ELISA). It is filed as cell-based, mice. The note with it: percentage relative to 100% for the difference between LPS-treated and non-LPS-treated group. On the procedure:
Anti-inflammatory effect was evaluated based on the inhibition of prostaglandin production. The anti-inflammatory effect of the paper mulberry extract of Preparation Example 1 was measured using macrophages. […] Then, 100 μl of the cell suspension was added to each well of a 96-well plate and cultured in a 5% CO2 incubator at 37° C. for 2 hours so that the macrophages were attached to the plate surface. Then, the attached macrophages were washed three times with PBS and used to test the effect of the extract. The cultured macrophages were added to 1%(w/v) LPS-containing RPMI medium at a concentration of 5×10^4 cells/ml and cultured for 12 hours to induce the production of prostaglandin, after which they were treated with 100 μl of the extract. Released prostaglandin was quantitatively analyzed by ELISA. Herein, the prostaglandin production inhibitory activity of the extract was expressed as the percentage of prostaglandin production in the group treated with LPS together with the sample relative to 100% for the difference in prostaglandin production between the LPS-treated group and the non-LPS-treated group.

In assay [8] the target is T2, 5α-reductase in HEK293-5αR2 cells (Homo sapiens, UniProt P31213).
T2 construct: 3×FLAG; expressed in transfected cells; host or cells: HEK293
T2 sequence (P31213 1-254): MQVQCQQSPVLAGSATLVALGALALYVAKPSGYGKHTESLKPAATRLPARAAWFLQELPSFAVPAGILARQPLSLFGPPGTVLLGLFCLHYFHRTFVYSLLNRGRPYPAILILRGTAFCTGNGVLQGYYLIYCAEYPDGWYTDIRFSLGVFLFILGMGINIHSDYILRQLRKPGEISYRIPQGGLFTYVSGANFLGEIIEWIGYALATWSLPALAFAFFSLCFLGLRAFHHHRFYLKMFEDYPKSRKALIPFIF
Put plainly: Inhibition of 5α-reductase (testosterone to dihydrotestosterone conversion). It is filed as cell-based. The note with it: radioactivity in the DHT region/total radioactivity; extract 10 μg/ml, 2 hours. On the procedure: In order to examine the effect of inhibiting 5α-reductase activity, the ratio of [^14C]testosterone-to-[14^C]dihydrotestosteron conversion in HEK293-5αR2 cells was measured. HEK293 cells transfected with p3×FLAG-CMV-5αR2 were added to a 24-well plate at a density of 2.5×10^5 cells/well and cultured (Park et al., 2003, JDS. Vol. 31, ppl 91-98). The next day, the medium was replaced with fresh medium containing an enzyme substrate and an inhibitor. As the substrate of the medium, 0.05 μCi [^14C]testosterone (Amersham Pharmacia biotech, UK) was used. In order to measure the degree of inhibition, 10 μg/ml of the paper mulberry extract of Preparation Example 2 was added to the cells which were then incubated in a 5% CO2 incubator at 37° C. for 2 hours. As a positive control, finasteride was used. The culture medium was collected and, steroid was extracted with 800 μl of ethyl acetate. […]
The plastic sample was dried in air, and the amount of isotopes was measured using a Vas system. Specifically, the dried plastic sheet together with an X-ray film was placed in a Vas cassette, and after 1 week, the amounts of the testosterone and dihydrotestosterone isotopes were measured.

T1 sequence (P00772 27-266): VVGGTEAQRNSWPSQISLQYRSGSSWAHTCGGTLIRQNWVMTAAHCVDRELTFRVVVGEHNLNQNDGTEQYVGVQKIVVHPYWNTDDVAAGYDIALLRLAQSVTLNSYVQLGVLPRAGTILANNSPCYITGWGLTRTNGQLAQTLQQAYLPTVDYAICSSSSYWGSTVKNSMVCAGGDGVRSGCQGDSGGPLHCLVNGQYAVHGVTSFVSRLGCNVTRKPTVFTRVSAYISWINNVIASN

Consider `Cn1c(=O)c2c(ncn2C)n(C)c1=O` [Caffeine, caffeine], for which the “Level of released glycerol” value in assay [1] is given as 115%. Besides, the “Inhibition (%)” value in assay [2] is “+”. For `O=C(O[C@@H]1Cc2c(O)cc(O)cc2O[C@@H]1c1cc(O)c(O)c(O)c1)c1cc(O)c(O)c(O)c1` [EGCG], the “Expression (%)” value in assay [3] is recorded as 90 ± 1.2%. On to `CC(C)Cn1c(=O)n(C)c(=O)c2[nH]cnc21` [IBMX], for which the “Percentage (%) of gluciferase production relative to negative control” value in assay [4] was found to be 180%. The “Ratio (%) of amount of melanin in hair relative to negative control” value in assay [5] was 105.9%. For the compound `CC1=C(/C=C/C(C)=C/C=C/C(C)=C/C(=O)O)C(C)(C)CCC1` [Retinoic acid, retinoic acid], in assay [6], the “Expression (%) (collagenase)” value is 75 ± 3.4%. Consider `CC(=O)Oc1ccccc1C(=O)O` [aspirin], for which the “Prostaglandin production (inhibitory effect on prostaglandin production)” value in assay [7] stood at 25.0%. As for `CC(C)(C)NC(=O)[C@H]1CC[C@H]2[C@@H]3CC[C@H]4NC(=O)C=C[C@]4(C)[C@H]3CC[C@]12C` [finasteride], the “Conversion (%)” value in assay [8] stood at 27.6%.
